The values below are quoted from earlier work in PubChem BioAssay AID1259410 (Chemical Carcinogenesis Research Information System (CCRIS), 2018).

This series has as its system rodent tumor promotion studies, tumor incidence. Briefly: CCRIS tumor promotion studies.

With `Oc1ccccc1O`, the outcome runs as follows: (Carcinogen: DIETHYLNITROSAMINE, 55-18-5, N-METHYL-N-NITROSOUREA, 684-93-5, 1,2-DIMETHYLHYDRAZINE, 540-73-8, N-BUTYL-N-(4-HYDRO, Carcinogen: DIETHYLNITROSAMINE, 55-18-5, N-METHYL-N-NITROSOUREA, 684-93-5, 1,2-DIMETHYLHYDRAZINE, 540-73-8, N-BUTYL-N-(4-HYDRO, Doses [Carcinogen]: 100 MG/KG BW DEN ONCE THEN 20 MG/KG BW MNU 1/D FOR 4 D FOLLOWED BY 40 MG/KG BW DMH 1/D FOR 4 D, 0.05% BHBN IN DRINKING W, Doses [Promoter]: 0, 0.8% IN DIET FOR 24 WK BEGINNING 3 D POST CARCINOGEN TREATMENT (STUDY DURATION: 28 WK), Route [Carcinogen]: INTRAPERITONEAL, INTRAPERITONEAL, SUBCUTANEOUS, ORAL, Route [Carcinogen]: INTRAPERITONEAL, INTRAPERITONEAL, SUBCUTANEOUS, ORAL, Route [Promoter]: ORAL, Species: RAT, Strain/Sex: F344/MALE) “forestomach: papilloma, squamous cell carcinoma; glandular stomach: adenoma, ade”; (Carcinogen: DIETHYLNITROSAMINE, 55-18-5, N-METHYLNITROSOUREA, 684-93-5, 1,2-DIMETHYLHYDRAZINE, 540-73-8, N-BUTYL-N-(4-HYDROXYBUTYL)N, Carcinogen: DIETHYLNITROSAMINE, 55-18-5, N-METHYLNITROSOUREA, 684-93-5, 1,2-DIMETHYLHYDRAZINE, 540-73-8, N-BUTYL-N-(4-HYDROXYBUTYL)N, Doses [Carcinogen]: 100 MG/KG BW DEN ONCE FOLLOWED BY 20 MG/KG BW MNU 2/WK FOR 2 WK THEN 40 MG/KG BW DMH 2/WK FOR THE NEXT 2WK, 0.05% BBN IN, Doses [Promoter]: 0, 0.16% IN DIET FOR 24 WK BEGINNING POST CARCINOGEN TREATMENT (STUDY DURATION: 28 WK), Route [Carcinogen]: INTRAPERITONEAL, INTRAPERITONEAL, SUBCUTANEOUS, ORAL, Route [Carcinogen]: INTRAPERITONEAL, INTRAPERITONEAL, SUBCUTANEOUS, ORAL, Route [Promoter]: ORAL, Species: RAT, Strain/Sex: F344/MALE) “forestomach: papilloma”; (Carcinogen: DIETHYLNITROSAMINE, 55-18-5, N-METHYLNITROSOUREA, 684-93-5, DIHYDROXY-DI-N- PROPYLNITROSAMINE, 53609-64-6, Carcinogen: DIETHYLNITROSAMINE, 55-18-5, N-METHYLNITROSOUREA, 684-93-5, DIHYDROXY-DI-N- PROPYLNITROSAMINE, 53609-64-6, Doses [Carcinogen]: 100 MG/KG/BW DEN ONCE AT BEGINNING OF STUDY THEN 20 MG/KG/BW MNU ONCE ON D 2, 5, 8 AND 11 OF STUDY FOLLOWED BY 0.1% DHPN, Doses [Promoter]: 0, 0.8% IN DIET BEGINNING POST CARCINOGEN TREATMENT AND CONTINUING FOR DURATION OF STUDY (STUDY DURATION: 20 WK), Route [Carcinogen]: INTRAPERITONEAL, INTRAPERITONEAL, ORAL, Route [Carcinogen]: INTRAPERITONEAL, INTRAPERITONEAL, ORAL, Route [Promoter]: ORAL, Species: RAT, Strain/Sex: F344/MALE) “forestomach: squamous cell papilloma”; (Carcinogen: METHYL-N-AMYLNITROSAMINE, 13256-07-0, Doses [Carcinogen]: 25 MG/KG AT WK 0, WK 1, AND WK 2 (TOTAL 3 TREATMENTS), Doses [Promoter]: 0, 0.8% IN DIET FOR 49 WK BEGINNING 1 WK POST CARCINOGEN DOSE (STUDY DURATION: 5 WK), Route [Carcinogen]: INTRAPERITONEAL, Route [Promoter]: ORAL, Species: RAT, Strain/Sex: F344/MALE) “tongue: papilloma; esophagus: carcinoma”; (Carcinogen: N-METHYL-N'-NITRO-N-NITROSOGUANIDINE, 70-25-7, Doses [Carcinogen]: 150 MG/KG ONCE, Doses [Promoter]: 0, 0.8% IN DIET BEGINNING 1 WK POST CARCINOGEN DOSE (STUDY DURATION: 52 WK), Route [Carcinogen]: GAVAGE, Route [Promoter]: ORAL, Species: RAT, Strain/Sex: F344) “forestomach: carcinoma; glandular stomach: adenocarcinoma”; (Carcinogen: N-METHYL-N-NITROSOUREA, 684-93-5, Doses [Carcinogen]: 120 PPM IN DRINKING WATER FOR 1-WK PERIODS EVERY OTHER WEEK FOR A TOTAL OF 3 WK OF TREATMENT, Doses [Promoter]: 0, 0.05, 0.2, 0.8% IN DIET FOR 30 WK BEGINNING POST CARCINOGEN TREATMENT (STUDY DURATION: 35 WK), Doses [Promoter]: 0, 0.05, 0.2, 0.8% IN DIET FOR 30 WK BEGINNING POST CARCINOGEN TREATMENT (STUDY DURATION: 35 WK), Route [Carcinogen]: ORAL, Route [Promoter]: ORAL, Species: MOUSE, Strain/Sex: BALB/MALE) “glandular stomach: adenoma”. For the same compound, the outcome (Carcinogen: N-METHYL-N-NITROSOUREA, 684-93-5, Doses [Carcinogen]: 120 PPM IN DRINKING WATER FOR 1-WK PERIODS EVERY OTHER WK FOR A TOTAL OF 3 WK OF TREATMENT, Doses [Promoter]: 0, 0.8% IN DIET FOR 30 WK BEGINNING POST CARCINOGEN TREATMENT (STUDY DURATION: 35 WK), Route [Carcinogen]: ORAL, Route [Promoter]: ORAL, Species: MOUSE, Strain/Sex: BALB/MALE) was “glandular stomach: adenocarcinoma”.

Take `Clc1ccc(C(c2ccc(Cl)cc2)C(Cl)(Cl)Cl)cc1`: the outcome (Carcinogen: 2-(ACETYLAMINO)FLUORINE, Doses [Carcinogen]: DIET, Doses [Promoter]: IN DIET, Route [Carcinogen]: ORAL, Route [Promoter]: ORAL, Species: RAT, Strain/Sex: MALE) is on record as “liver”; the outcome (Carcinogen: N-METHYL-N'-NITRO-N-NITROSOGUANIDINE, 70-25-7, Doses [Carcinogen]: 50 PPM FOR 60 MIN, Doses [Promoter]: 0, 100 PPM IN DIET BEGINNING 14 WK POST CARCINOGEN DOSE (STUDY DURATION: 12 MO), Route [Carcinogen]: IMMERSION, Route [Promoter]: ORAL, Species: FISH, Strain/Sex: RAINBOW TROUT) is on record as “liver: tumor”; the outcome (Carcinogen: N-NITROSODIETHYLAMINE, 55-18-5, Doses [Carcinogen]: 90 MG/KG BW ONCE, Doses [Promoter]: 0, 300 PPM IN DIET FOR 53 WK BEGINNING 2 WK POST CARCINOGEN DOSE (STUDY DURATION: 55 WK), Route [Carcinogen]: INTRAPERITONEAL, Route [Promoter]: ORAL, Species: MOUSE, Strain/Sex: D2B6F1/MALE) is on record as “liver: hepatocellular adenoma, hepatocellular carcinoma”; the outcome (Doses [Carcinogen]: 0.5 PPM FOR 30 MIN, Doses [Promoter]: 0, 100 PPM IN DIET BEGINNING 14 WK POST CARCINOGEN DOSE (STUDY DURATION: 12 MO), Route [Carcinogen]: IMMERSION, Route [Promoter]: ORAL, Species: FISH, Strain/Sex: RAINBOW TROUT) is given as “liver: tumor”; the outcome (Doses [Carcinogen]: 50 UG 2/WK FOR WK 1-4 OF STUDY THEN 75 UG 2/WK FOR WK 5-8, Doses [Promoter]: 0, 7.5 MG 2/WK FOR 14 WK BEGINNING 1 WK POST CARCINOGEN TREATMENT (STUDY DURATION: 1 YR), Route [Carcinogen]: GAVAGE, Route [Promoter]: GAVAGE, Species: RAT, Strain/Sex: WISTAR/MALE) is reported as “liver: carcinoma”; the outcome (Doses [Carcinogen]: 50 UG 2/WK FOR WK 1-4 OF STUDY THEN 75 UG 2/WK FOR WK 5-8, Doses [Promoter]: 0, 7.5 MG 2/WK FOR 14 WK BEGINNING 3 WK POST CARCINOGEN TREATMENT (STUDY DURATION: 1 YR), Route [Carcinogen]: GAVAGE, Route [Promoter]: GAVAGE, Species: RAT, Strain/Sex: WISTAR/MALE) was “liver: carcinoma”.

Take `CC(=O)O[C@@]12[C@H](OC(=O)/C=C(C)/C=C/C=C(C)/C=C/C3=C(C)CCCC3(C)C)[C@@H](C)[C@@]3(O)[C@@H](C=C(CO)C[C@]4(O)C(=O)C(C)=C[C@@H]34)[C@@H]1C2(C)C`: under “Carcinogen: 7,12-DIMETHYLBENZ[A]ANTHRACENE, 57-97-6, Doses [Carcinogen]: 10 NMOL ONCE, Doses [Promoter]: 0, 2.5, 5 UG IN 0.2 ML ACETONE 2/WK FOR 21 WK BEGINNING 1 WK POST CARCINOGEN (STUDY DURATION: 21 WK), Doses [Promoter]: 0, 2.5, 5 UG IN 0.2 ML ACETONE 2/WK FOR 21 WK BEGINNING 1 WK POST CARCINOGEN (STUDY DURATION: 21 WK), Route [Carcinogen]: DERMAL, Route [Promoter]: DERMAL, Species: MOUSE, Strain/Sex: SENCAR/FEMALE”, the outcome was “skin: papilloma”.

In the case of `C=C1C(O)C2OC3(CCC(/C=C/C(C)C4CC(C)=CC5(OC(CC(C)(O)C(=O)O)CCC5O)O4)O3)CCC2OC1C(O)CC(C)C1OC2(CCC1C)OCCCC2C` (configuration not stated), where the note is “Carcinogen: 7,12-DIMETHYLBENZ[A]ANTHRACENE, 57-97-6, Doses [Carcinogen]: 100 UG IN 0.1 ML OF ACETONE ONCE, Doses [Promoter]: 0, 5 UG IN 0.1 ML OF ACETONE 2/WK FOR 30 WK BEGINNING 1 WK POST CARCINOGEN DOSE (STUDY DURATION: 31 WK), Route [Carcinogen]: DERMAL, Route [Promoter]: DERMAL, Species: MOUSE, Strain/Sex: CD-1/FEMALE”, the outcome was “skin: tumor”.

Turning to `CN(CCCC(=O)c1cccnc1)N=O`, the outcome (Carcinogen: Smoke, Doses [Carcinogen]: Exposure to smoke from non-filtered cigarettes for 6 mo, urine cotinine levels suggest equivalence to 1 pack a day human, Doses [Promoter]: 50 mg/kg every 4 wk for total of 4 doses, Route [Carcinogen]: Inhalation, Route [Promoter]: Subcutaneous, Species: Ferret, Strain/Sex: Male ( 9, 12/Group)) was “lung: tumors: squamous cell carcinomas (1/12), adenocarcinomas (3/12) and adenos”.

On to `CN=C(NC#N)NCCSCc1nc[nH]c1C`, for which the outcome (Carcinogen: 1,2-DIMETHYLHYDRAZINE, 540-73-8, Doses [Carcinogen]: 30 MG/KG BW 1/WK FOR 5 WK, Doses [Promoter]: 0, 500 MG/L IN DRINKING WATER BEGINNING 4 D POST LAST CARCINOGEN DOSE (STUDY DURATION: 6 MO), Route [Carcinogen]: GAVAGE, Route [Promoter]: ORAL, Species: RAT, Strain/Sex: SPRAGUE-DAWLEY/MALE) is reported as “intestine: tumor”.
